Experimental data: patent US10324099B2, “Ultrasensitive androgen receptor bioassay” (The Regents of the University of California, priority 2014, dated 2019)

Test system: mutant AR-YFP
Assay: YFP fluorescence in reporter cell nuclei at saturating target hormone
Type: cell-based
Conditions: absence of urine
Procedure: For example, YFP fluorescence measured in the cell nuclei of urine-treated reporter cells represents both the effects of target hormone-bound nuclear-translocated mutant AR-YFP, and also the independent effects of urine on the fluorescence properties of YFP. […] Because the effect varies among samples, two aliquots of each sample are required. […] A second sample aliquot is assayed using the methods of the invention. The correction factor is used to subtract the percentage increase from the YFP fluorescence signal measurement of the second aliquot. The corrected YFP fluorescence of the sample then is used to extrapolate the target hormone levels from a standard curve.

C[C@]12CC[C@H]3[C@@H](CCC4=CC(=O)CC[C@@]43C)[C@@H]1CC[C@@H]2O [testosterone]
saturating level (YFP fluorescence in nuclei reaches a maximum): about 10^−7 M
